Legend:
[1] = tested on: Escherichia coli; experiment: Inhibition of LuxR-dependent quorum sensing activity in Escherichia coli MT102 harboring pJBA132 assessed as inhibition of OHHL-induced GFP expression at 1 mM measured after 8 hrs by fluorescence assay relative to control
[2] = tested on: Pseudomonas aeruginosa; experiment: Growth inhibition of Pseudomonas aeruginosa PA14 at 2 mM after 24 hrs relative to control; settings: 2000 µM
[3] = tested on: Pseudomonas aeruginosa; experiment: Inhibition of LasR-dependent quorum sensing activity in Pseudomonas aeruginosa MH602 harboring GFP-fused […] LasB promoter assessed as inhibition of 3-oxo-dodecanoyl HSL-induced GFP expression at 2 mM measured after 8 hrs by fluorescence assay relative to control
[4] = tested on: Escherichia coli; experiment: Growth inhibition of Escherichia coli MT102 at 1 mM after 24 hrs relative to control; settings: MT102, 24 h, read-out: GI
[5] = tested on: Pseudomonas aeruginosa; experiment: Growth inhibition of Pseudomonas aeruginosa MH602 at 1 mM after 8 hrs relative to control; settings: MH602, 8 h, read-out: GI
[6] = tested on: Escherichia coli; experiment: Growth inhibition of Escherichia coli MT102 at 500 uM after 8 hrs relative to control; settings: MT102, 8 h, read-out: GI
[7] = tested on: Pseudomonas aeruginosa; experiment: Inhibition of LasR-dependent quorum sensing activity in Pseudomonas aeruginosa MH602 harboring GFP-fused […] LasB promoter assessed as inhibition of 3-oxo-dodecanoyl HSL-induced GFP expression at 500 uM measured after 24 hrs by fluorescence assay relative to control
[8] = tested on: Escherichia coli; experiment: Inhibition of LuxR-dependent quorum sensing activity in Escherichia coli MT102 harboring pJBA132 assessed as inhibition of OHHL-induced GFP expression at 1 mM measured after 24 hrs by fluorescence assay relative to control
[9] = tested on: Pseudomonas aeruginosa; experiment: Growth inhibition of Pseudomonas aeruginosa MH602 at 500 uM after 8 hrs relative to control; settings: MH602, 8 h, read-out: GI
[10] = tested on: Pseudomonas aeruginosa; experiment: Inhibition of LasR-dependent quorum sensing activity in Pseudomonas aeruginosa MH602 harboring GFP-fused […] LasB promoter assessed as inhibition of 3-oxo-dodecanoyl HSL-induced GFP expression at 500 uM measured after 8 hrs by fluorescence assay relative to control
[11] = tested on: Escherichia coli; experiment: Inhibition of LuxR-dependent quorum sensing activity in Escherichia coli MT102 harboring pJBA132 assessed as inhibition of OHHL-induced GFP expression at 2 mM measured after 24 hrs by fluorescence assay relative to control
[12] = tested on: Escherichia coli; experiment: Inhibition of LuxR-dependent quorum sensing activity in Escherichia coli MT102 harboring pJBA132 assessed as inhibition of OHHL-induced GFP expression at 500 uM measured after 8 hrs by fluorescence assay relative to control
[13] = tested on: Pseudomonas aeruginosa; experiment: Growth inhibition of Pseudomonas aeruginosa MH602 at 500 uM after 24 hrs relative to control; settings: MH602, 24 h, read-out: GI
[14] = tested on: Pseudomonas aeruginosa; experiment: Growth inhibition of Pseudomonas aeruginosa MH602 at 1 mM after 24 hrs relative to control; settings: MH602, 24 h, read-out: GI
[15] = tested on: Pseudomonas aeruginosa; experiment: Inhibition of LasR-dependent quorum sensing activity in Pseudomonas aeruginosa MH602 harboring GFP-fused […] LasB promoter assessed as inhibition of 3-oxo-dodecanoyl HSL-induced GFP expression at 1 mM measured after 8 hrs by fluorescence assay relative to control
[16] = tested on: Escherichia coli; experiment: Growth inhibition of Escherichia coli MT102 at 500 uM after 24 hrs relative to control; settings: MT102, 24 h, read-out: GI
[17] = tested on: Pseudomonas aeruginosa; experiment: Inhibition of LasR-dependent quorum sensing activity in Pseudomonas aeruginosa MH602 harboring GFP-fused […] LasB promoter assessed as inhibition of 3-oxo-dodecanoyl HSL-induced GFP expression at 2 mM measured after 24 hrs by fluorescence assay relative to control
[18] = tested on: Pseudomonas aeruginosa; experiment: Growth inhibition of Pseudomonas aeruginosa MH602 at 2 mM after 8 hrs relative to control; settings: MH602, 8 h, read-out: GI
[19] = tested on: Pseudomonas aeruginosa PA14; experiment: Inhibition of quorum sensing-regulated biofilm formation in Pseudomonas aeruginosa PA14 at 2 mM after overnight incubation by crystal violet staining based assay relative to control
[20] = tested on: Escherichia coli; experiment: Growth inhibition of Escherichia coli MT102 at 2 mM after 24 hrs relative to control; settings: MT102, 24 h, read-out: GI
[21] = tested on: Pseudomonas aeruginosa; experiment: Inhibition of LasR-dependent quorum sensing activity in Pseudomonas aeruginosa MH602 harboring GFP-fused […] LasB promoter assessed as inhibition of 3-oxo-dodecanoyl HSL-induced GFP expression at 1 mM measured after 24 hrs by fluorescence assay relative to control
[22] = tested on: Pseudomonas aeruginosa; experiment: Growth inhibition of Pseudomonas aeruginosa MH602 at 2 mM after 24 hrs relative to control; settings: MH602, 24 h, read-out: GI
[23] = tested on: Escherichia coli; experiment: Inhibition of LuxR-dependent quorum sensing activity in Escherichia coli MT102 harboring pJBA132 assessed as inhibition of OHHL-induced GFP expression at 2 mM measured after 8 hrs by fluorescence assay relative to control
[24] = tested on: Escherichia coli; experiment: Growth inhibition of Escherichia coli MT102 at 1 mM after 8 hrs relative to control; settings: MT102, 8 h, read-out: GI
[25] = tested on: Escherichia coli; experiment: Growth inhibition of Escherichia coli MT102 at 2 mM after 8 hrs relative to control; settings: MT102, 8 h, read-out: GI
[26] = tested on: Pseudomonas aeruginosa PA14; experiment: Inhibition of quorum sensing-regulated pyocyanin production in Pseudomonas aeruginosa PA14 at 2 mM after 24 hrs relative to control

Row | SMILES | inhibition [1] | growth inhibition (GI) [2] | inhibition at 1000 µM [4] | inhibition at 1000 µM [5] | inhibition at 500 µM [6] | inhibition [8] | inhibition at 500 µM [9] | inhibition [10] | inhibition at 500 µM [13] | inhibition at 1000 µM [14] | inhibition [15] | inhibition at 500 µM [16] | inhibition [17] | inhibition at 2000 µM [18] | inhibition [19] | inhibition at 2000 µM [20] | inhibition at 2000 µM [22] | inhibition [23] | inhibition at 1000 µM [24] | inhibition at 2000 µM [25] | other results
1 | CC(=O)OC[C@H]1O[C@@H](OC(C)=O)[C@H](NC(=O)Cc2ccc(C(F)(F)F)cc2)[C@@H](OC(C)=O)[C@@H]1OC(C)=O | 13% | Non-Toxic | 1.1% | 0% | 0% | 27.2% | 0% | 2.5% | 0% | 0% | 9.2% | 0.9% | 7% | 0% | 19.3% | 0% | 0% | 11.3% | 0% | 0% | inhibition [3]: 20.1%; inhibition [7]: 5.9%; inhibition [11]: 61.7%; inhibition [12]: 8.6%; inhibition [21]: 5.6%
2 | CC(=O)OC[C@H]1O[C@@H](OC(C)=O)[C@H](NC(=O)Cc2ccc(F)cc2)[C@@H](OC(C)=O)[C@@H]1OC(C)=O | 14% | Non-Toxic | 9.4% | 0% | 0% | 1.3% | 0% | 5.9% | 0% | 0% | 7.3% | 11.8% | 5.7% | 0% | 45.6% | 0% | 0% | 17.1% | 0% | 0% | inhibition [3]: 7.4%; inhibition [11]: 61.1%; inhibition [12]: 14.1%; inhibition [21]: 4.3%
3 | O=C(Cc1ccc(Br)cc1)N[C@@H]1[C@@H](O)[C@H](O)[C@@H](CO)O[C@H]1O | 6.5% | Non-Toxic | 5.9% | 1.8% | 0% | 4.6% | 0% | 6.6% | 1.8% | 1.6% | 14.3% | 3% |  | 0% | 17.3% | 6.1% | 4% | 15.2% | 0% | 0% | inhibition [3]: 15.3%; inhibition [7]: 2.4%; inhibition [11]: 1.1%; inhibition [12]: 11.9%; inhibition [26]: 8.6%
4 | CCCCCC(=O)N[C@H]1[C@H](OC(C)=O)O[C@H](COC(C)=O)[C@@H](OC(C)=O)[C@@H]1OC(C)=O | 14.6% | Non-Toxic | 10.8% | 2.7% | 20.5% | 6.6% | 3% | 3.5% | 0% | 4.5% | 10.5% | 2.2% | 22.8% | 9.5% |  | 15.2% | 6.8% | 11.6% | 16.9% | 30.3% | inhibition [3]: 4%; inhibition [7]: 3.1%; inhibition [11]: 17.2%; inhibition [21]: 2.6%
5 | O=C(Cc1ccc(Cl)cc1)N[C@@H]1[C@@H](O)[C@H](O)[C@@H](CO)O[C@H]1O | 2% | Non-Toxic | 7.4% | 0% | 0% | 4.6% | 1.3% |  | 0% | 0% | 3.4% | 11.2% | 8.7% | 0% | 15.3% | 4.5% | 0% | 4.3% | 0% | 0% | inhibition [7]: 7%; inhibition [11]: 2.8%; inhibition [12]: 5.6%; inhibition [26]: 11.9%; inhibition [21]: 7%
6 | CC(=O)OC[C@H]1O[C@@H](OC(C)=O)[C@H](NC(=O)Cc2c[nH]c3ccccc23)[C@@H](OC(C)=O)[C@@H]1OC(C)=O |  | Non-Toxic | 1.8% | 0% | 0% |  | 0% |  | 0% | 0% | 4% | 2.8% | 12.5% | 0% | 0.5% | 15.1% | 4.6% |  | 0% | 0% | inhibition [7]: 12.1%; inhibition [11]: 24.2%; inhibition [26]: 1.5%; inhibition [21]: 12.5%
7 | O=C(Cc1ccc(F)cc1)N[C@@H]1[C@@H](O)[C@H](O)[C@@H](CO)O[C@H]1O | 3.6% | Non-Toxic | 8.8% | 0% | 0% | 2% | 0% | 9.2% | 1.4% | 3% | 29% | 19.4% | 2.9% | 0% | 5.1% | 15.8% | 0% | 12.6% | 0% | 0% | inhibition [3]: 31.3%; inhibition [12]: 2.4%; inhibition [26]: 6.6%
8 | CCCCCC(=O)CC(=O)N[C@H]1[C@H](OC(C)=O)O[C@H](COC(C)=O)[C@@H](OC(C)=O)[C@@H]1OC(C)=O | 2.1% | Non-Toxic | 13.2% | 0% | 0% |  | 0% | 4.9% | 4.2% | 0% | 8.9% | 2.3% | 2.5% | 0% | 19.5% | 20.8% | 0% | 7.9% | 2.3% | 9.2% | inhibition [3]: 18.9%; inhibition [7]: 3.3%; inhibition [12]: 7.7%; inhibition [26]: 1.9%
9 | CCCCCCCCCC(=O)N[C@H]1[C@H](OC(C)=O)O[C@H](COC(C)=O)[C@@H](OC(C)=O)[C@@H]1OC(C)=O |  | Non-Toxic | 12.6% | 7.8% | 12.8% | 5.1% | 0% | 10.2% | 0% | 1.2% | 7% | 11.1% | 17.2% | 10.2% | 46.9% | 15.9% | 0% | 48.1% | 0% | 30.6% | inhibition [11]: 35.5%; inhibition [21]: 7.8%

— ChEMBL document CHEMBL3875216, “Synthesis of antimicrobial glucosamides as bacterial quorum sensing mechanism inhibitors” (Bioorg Med Chem, 2017)
